According to PubChem BioAssay (NCI):
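Following 48 hours of exposure in 96-well plates, responses at five concentrations were used to interpolate endpoints linearly. GI50: concentration for 50% inhibition of growth. TGI marks complete inhibition of growth.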

How the values were obtained:
Assay in all cases: inhibition of tumour cell growth, NCI panel, 48 h
[1] = system: UO-31 renal
[2] = system: SK-MEL-28 melanoma
[3] = system: T-47D breast
[4] = system: LOX IMVI melanoma
[5] = system: A549 NSCLC
[6] = system: SN12C renal
[7] = system: HOP-62 NSCLC
[8] = system: RXF 393 renal
[9] = system: UACC-257 melanoma
[10] = system: NCI-H460 lung
[11] = system: HL-60(TB) leukemia
[12] = system: PC-3 prostate
[13] = system: OVCAR-3 ovarian
[14] = system: SNB-75 CNS
[15] = system: MALME-3M melanoma
[16] = system: OVCAR-5 ovarian
[17] = system: HCC-2998 colon
[18] = system: A498 renal
[19] = system: MDA-MB-231 breast
[20] = system: SF-539 CNS
[21] = system: HT29 colon
[22] = system: MDA-MB-435
[23] = system: MCF7 breast
[24] = system: DU-145 prostate
[25] = system: SF-295 CNS
[26] = system: CCRF-CEM leukemia
[27] = system: SR leukemia
[28] = system: COLO 205 colon
[29] = system: M14 melanoma
[30] = system: BT-549 breast
[31] = system: NCI-H522 lung
[32] = system: ACHN renal
[33] = system: SNB-19 CNS
[34] = system: SK-OV-3 ovarian
[35] = system: HCT-15 colon
[36] = system: MOLT-4 leukemia
[37] = system: RPMI-8226 leukemia
[38] = system: EKVX NSCLC
[39] = system: TK-10 renal
[40] = system: NCI-H226 lung
[41] = system: 786-0 renal
[42] = system: HOP-92 NSCLC
[43] = system: K-562 leukemia
[44] = system: SK-MEL-2 melanoma
[45] = system: SW-620 colon
[46] = system: NCI-H23 lung
[47] = system: IGROV1 ovarian
[48] = system: HCT-116 colon
[49] = system: CAKI-1 renal
[50] = system: SK-MEL-5 melanoma
[51] = system: UACC-62 melanoma
[52] = system: KM12 colon

CN1CCN(Cc2ccc(NC(=O)c3cncc(C#Cc4cnc5ccc(N6CCSCC6)nn45)c3)cc2C(F)(F)F)CC1
GI50 [1]: 280 nM
TGI [1]: 855 nM
GI50 [2]: 498 nM
TGI [2]: 1850 nM
GI50 [3]: 1400 nM
TGI [3]: 3890 nM
GI50 [4]: 152 nM
TGI [4]: 535 nM
GI50 [5]: 272 nM
TGI [5]: 1580 nM
GI50 [6]: 112 nM
TGI [6]: 702 nM
GI50 [7]: 338 nM
TGI [7]: 1450 nM
GI50 [8]: 141 nM
TGI [8]: 295 nM
GI50 [9]: 599 nM
TGI [9]: 2340 nM
GI50 [10]: 208 nM
TGI [10]: 532 nM
GI50 [11]: 78.2 nM
TGI [11]: 520 nM
GI50 [12]: 327 nM
TGI [12]: 1990 nM
GI50 [13]: 322 nM
TGI [13]: 1290 nM
GI50 [14]: 256 nM
TGI [14]: 832 nM
GI50 [15]: 202 nM
TGI [15]: 1070 nM
GI50 [16]: 282 nM
TGI [16]: 1320 nM
GI50 [17]: 245 nM
TGI [17]: 878 nM
GI50 [18]: 307 nM
TGI [18]: 537 nM
GI50 [19]: 74.2 nM
TGI [19]: 572 nM
GI50 [20]: 93.6 nM
TGI [20]: 275 nM
GI50 [21]: 74.4 nM
TGI [21]: 554 nM
GI50 [22]: 197 nM
TGI [22]: 1480 nM
GI50 [23]: 45.9 nM
TGI [23]: 598 nM
GI50 [24]: 202 nM
TGI [24]: 600 nM
GI50 [25]: 310 nM
TGI [25]: 1600 nM
GI50 [26]: 303 nM
GI50 [27]: 208 nM
TGI [27]: 712 nM
GI50 [28]: 153 nM
TGI [28]: 429 nM
GI50 [29]: 156 nM
TGI [29]: 760 nM
GI50 [30]: 354 nM
TGI [30]: 1240 nM
GI50 [31]: 132 nM
TGI [31]: 340 nM
GI50 [32]: 224 nM
TGI [32]: 1200 nM
GI50 [33]: 446 nM
TGI [33]: 1350 nM
GI50 [34]: 656 nM
TGI [34]: 2060 nM
GI50 [35]: 172 nM
TGI [35]: 564 nM
GI50 [36]: 198 nM
TGI [36]: 666 nM
GI50 [37]: 333 nM
TGI [37]: 2070 nM
GI50 [38]: 100 nM
TGI [38]: 877 nM
GI50 [39]: 319 nM
TGI [39]: 1080 nM
GI50 [40]: 51.8 nM
TGI [40]: 780 nM
GI50 [41]: 189 nM
TGI [41]: 762 nM
GI50 [42]: 41.8 nM
TGI [42]: 240 nM
TGI [43]: 753 nM
GI50 [44]: 260 nM
TGI [44]: 745 nM
GI50 [45]: 153 nM
TGI [45]: 1090 nM
GI50 [46]: 156 nM
TGI [46]: 595 nM
GI50 [47]: 168 nM
TGI [47]: 806 nM
GI50 [48]: 112 nM
TGI [48]: 1160 nM
GI50 [49]: 221 nM
TGI [49]: 787 nM
GI50 [50]: 786 nM
TGI [50]: 2080 nM
GI50 [51]: 468 nM
TGI [51]: 1930 nM
TGI [52]: 340 nM
